Source: PubChem BioAssay AID278 (DTP/NCI, 2004)
Results filed as inconclusive are left out. Residues, ends and D or L forms follow the SMILES beside them. *: point of attachment. Trt = c1ccc(C(c2ccccc2)(c2ccccc2)*)cc1; Cbz = O=C(OCc1ccccc1)*; Bn = c1ccc(C*)cc1; βAla = NCCC(=O)O

Tested on: nude mice, A549 intrarenal xenograft, tumor weight change
Test: NCI In Vivo Anticancer Drug Screen. Data for tumor model A549 Human Adenocarcinoma of Lung with characteristics of Type II Alveolar Epithelial cells (intrarenal inoculation) in NU/NU BALB/C (nude) mice
Conditions: endpoint: mean tumor weight change, schedule: Q04DX003 (ip), higher = larger tumour
How it was run: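 Activity is expressed as T/C: the treated-group value over the vehicle-treated control value. The measure was survival or tumor size in mice carrying transplantable tumors.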

[1] = dose: 25.0 mg/kg/injection, vehicle: Klucel (hydroxypropylcellulose) (HPC)
[2] = dose: 150.0 mg/kg/injection, vehicle: Klucel (hydroxypropylcellulose) (HPC)
[3] = dose: 37.5 mg/kg/injection, vehicle: saline with Tween-80
[4] = dose: 75.0 mg/kg/injection, vehicle: saline with Tween-80
[5] = dose: 150.0 mg/kg/injection, vehicle: saline with Tween-80
[6] = dose: 300.0 mg/kg/injection, vehicle: saline with Tween-80
[7] = dose: 150.0 mg/kg/injection, vehicle: saline
[8] = dose: 300.0 mg/kg/injection, vehicle: saline
[9] = dose: 600.0 mg/kg/injection, vehicle: saline
[10] = dose: 1200.0 mg/kg/injection, vehicle: saline
[11] = dose: 100.0 mg/kg/injection, vehicle: saline with Tween-80
[12] = dose: 200.0 mg/kg/injection, vehicle: saline with Tween-80
[13] = dose: 400.0 mg/kg/injection, vehicle: saline with Tween-80
[14] = dose: 25.0 mg/kg/injection, vehicle: saline
[15] = dose: 1.25 mg/kg/injection, vehicle: saline + alcohol
[16] = dose: 2.5 mg/kg/injection, vehicle: saline + alcohol

Compound: CCC(=O)[O][Bi]([c]1ccccc1)[c]1ccccc1
- T/C (dose: 6.25 mg/kg/injection, vehicle: Klucel (hydroxypropylcellulose) (HPC)): 79 % of control
- T/C (dose: 12.5 mg/kg/injection, vehicle: Klucel (hydroxypropylcellulose) (HPC)): 49 % of control
- T/C [1]: 43 % of control

Compound: COC1CC2C=C(C)/C=C/C=C/C(=O)NC(c3ccccc3)C/C=C/CCC(O)CC(=O)C2=C1O (configuration not stated)
- T/C (dose: 37.5 mg/kg/injection, vehicle: Klucel (hydroxypropylcellulose) (HPC)): 17 % of control
- T/C (dose: 75.0 mg/kg/injection, vehicle: Klucel (hydroxypropylcellulose) (HPC)): 115 % of control
- T/C [2]: 113 % of control

Compound: CCCC1CCC(=C2C(=O)CCC2=O)O1 (configuration not stated)
- T/C [3]: 247 % of control
- T/C [4]: 68 % of control
- T/C [5]: 109 % of control
- T/C [6]: 50 % of control

Compound: COC(=O)C(CSC(c1ccccc1)(c1ccccc1)c1ccccc1)NC(=O)C(CSCc1ccccc1)NC(=O)CCNC(=O)OCc1ccccc1 (configuration not stated) ({Cbz-βAla}-Cys(Bn)-Cys(Trt)-OMe; configuration not given here)
- T/C (dose: 100.0 mg/kg/injection, vehicle: Klucel + Tween-80): 153 % of control
- T/C (dose: 200.0 mg/kg/injection, vehicle: Klucel + Tween-80): 112 % of control
- T/C (dose: 400.0 mg/kg/injection, vehicle: Klucel + Tween-80): 161 % of control
- T/C (dose: 800.0 mg/kg/injection, vehicle: Klucel + Tween-80): 109 % of control

Compound: COc1ccc(C[C@@H]2NC[C@@H](O)[C@@H]2OC(C)=O)cc1
- T/C [3]: 87 % of control
- T/C [4]: 48 % of control
- T/C [5]: 86 % of control

Compound: Nc1cc2c(cc1Br)-c1c(C(=O)O)cccc1C2O (configuration not stated)
- T/C (dose: 150.0 mg/kg/injection, vehicle: sodium bicarbonate): 74 % of control
- T/C (dose: 300.0 mg/kg/injection, vehicle: sodium bicarbonate): 78 % of control
- T/C (dose: 600.0 mg/kg/injection, vehicle: sodium bicarbonate): 68 % of control
- T/C (dose: 1200.0 mg/kg/injection, vehicle: sodium bicarbonate): 56 % of control

Compound: CC1(C)Nc2cc3c(cc2-n2cccc21)oc1ccccc13
- T/C [7]: 77 % of control
- T/C [8]: 98 % of control
- T/C [9]: 66 % of control
- T/C [10]: 57 % of control

Compound: c1cn[nH]c1
- T/C (dose: 113.9 mg/kg/injection, vehicle: saline): 93 % of control
- T/C (dose: 151.9 mg/kg/injection, vehicle: saline): 47 % of control
- T/C (dose: 202.5 mg/kg/injection, vehicle: saline): 63 % of control
- T/C [8]: 46 % of control

Compound: O=C1CN(CCN2CC(=O)N(CN3CCOCC3)C(=O)C2)CC(=O)N1CN1CCOCC1
- T/C [3]: 51 % of control
- T/C [4]: 60 % of control

Compound: CN1COc2c(n(C)c(=O)[nH]c2=O)C1
- T/C (dose: 150.0 mg/kg/injection, vehicle: suspension in saline): 97 % of control
- T/C (dose: 300.0 mg/kg/injection, vehicle: suspension in saline): 46 % of control
- T/C (dose: 600.0 mg/kg/injection, vehicle: suspension in saline): 88 % of control
- T/C (dose: 1200.0 mg/kg/injection, vehicle: suspension in saline): 67 % of control

Compound: CC[C@@]1(O)C(=O)OCc2c1cc1n(c2=O)Cc2cc3c(N)cccc3nc2-1
- T/C (dose: 1.0 mg/kg/injection, vehicle: saline with Tween-80): 3 % of control
- T/C (dose: 1.44 mg/kg/injection, vehicle: saline with Tween-80): 1 % of control
- T/C (dose: 2.0 mg/kg/injection, vehicle: saline with Tween-80): -8 % of control
- T/C (dose: 2.4 mg/kg/injection, vehicle: saline with Tween-80): -64 % of control
- T/C (dose: 4.0 mg/kg/injection, vehicle: saline with Tween-80): -68 % of control

Compound: CCCCCC[Se][Se]CCCCCC
- T/C (dose: 10.0 mg/kg/injection, vehicle: Klucel (hydroxypropylcellulose) (HPC)): 106 % of control
- T/C (dose: 20.0 mg/kg/injection, vehicle: Klucel (hydroxypropylcellulose) (HPC)): 38 % of control
- T/C (dose: 40.0 mg/kg/injection, vehicle: Klucel (hydroxypropylcellulose) (HPC)): 70 % of control
- T/C (dose: 80.0 mg/kg/injection, vehicle: Klucel (hydroxypropylcellulose) (HPC)): 71 % of control

Compound: CC1C(c2ccccc2)OC(N2CCOCC2)C(C)(C)CN1C (configuration not stated)
- T/C [5]: 112 % of control
- T/C [6]: 72 % of control

Compound: O=C(O)C1CC(O)CN1 (configuration not stated)
- T/C [7]: 70 % of control
- T/C [8]: 65 % of control
- T/C [9]: 110 % of control
- T/C [10]: 71 % of control

Compound: NC(=S)N/N=C/c1ccc(O)cn1
- T/C [11]: 46 % of control
- T/C [12]: 57 % of control
- T/C [13]: 53 % of control

Compound: Nc1ccc2ccc(N)cc2c1
- T/C [11]: 87 % of control
- T/C [12]: 111 % of control
- T/C [13]: 55 % of control

Compound: Cc1nc2c(N)cc(Cl)cc2[nH]1
- T/C [11]: 89 % of control
- T/C [12]: 95 % of control

Compound: c1nnc(NCNc2nncs2)s1
- T/C (dose: 100.0 mg/kg/injection, vehicle: suspension in saline): 61 % of control
- T/C (dose: 144.0 mg/kg/injection, vehicle: Klucel (hydroxypropylcellulose) (HPC)): 36 % of control
- T/C (dose: 200.0 mg/kg/injection, vehicle: suspension in saline): 23 % of control
- T/C (dose: 240.0 mg/kg/injection, vehicle: Klucel (hydroxypropylcellulose) (HPC)): 23 % of control
- T/C (dose: 400.0 mg/kg/injection, vehicle: suspension in saline): 20 % of control

Compound: CC(=O)/C(=C\c1ccc(Cl)c(Cl)c1)C(=O)CCN(C)C
- T/C (dose: 12.5 mg/kg/injection, vehicle: saline): 78 % of control
- T/C [14]: 39 % of control
- T/C (dose: 50.0 mg/kg/injection, vehicle: saline): 32 % of control

Compound: CCOC(=O)/N=[N+](\[O-])c1ccccc1
- T/C (dose: 12.5 mg/kg/injection, vehicle: saline with Tween-80): 156 % of control
- T/C (dose: 25.0 mg/kg/injection, vehicle: saline with Tween-80): 245 % of control
- T/C (dose: 50.0 mg/kg/injection, vehicle: saline with Tween-80): 217 % of control

Compound: O=C([O][Bi]([c]1ccccc1)[c]1ccccc1)c1ccccc1
- T/C [1]: 83 % of control
- T/C (dose: 50.0 mg/kg/injection, vehicle: Klucel (hydroxypropylcellulose) (HPC)): 76 % of control
- T/C (dose: 200.0 mg/kg/injection, vehicle: Klucel (hydroxypropylcellulose) (HPC)): 73 % of control

Compound: COc1ccc2oc(-c3ccc(Cl)cc3)c(N3CCN(C)CC3)c2c1
- T/C (dose: 75.0 mg/kg/injection, vehicle: saline): 21 % of control
- T/C [7]: 24 % of control

Compound: CC1OC2CC(O)C1(O)C1=C2C(O)=C(C(N)=O)C(=N)C1=O (configuration not stated)
- T/C (dose: 0.63 mg/kg/injection, vehicle: saline + alcohol): 66 % of control
- T/C [15]: 48 % of control
- T/C [16]: 35 % of control
- T/C (dose: 5.0 mg/kg/injection, vehicle: saline + alcohol): 94 % of control

Compound: Oc1c(Cl)cc(Cl)cc1C=NCCSc1ccc(Cl)cc1
- T/C [2]: 90 % of control
- T/C (dose: 300.0 mg/kg/injection, vehicle: Klucel (hydroxypropylcellulose) (HPC)): 100 % of control
- T/C (dose: 600.0 mg/kg/injection, vehicle: Klucel (hydroxypropylcellulose) (HPC)): 83 % of control

Compound: COC1=C(C)C(=O)C2=C(C1=O)C(CO)N1C(C#N)C3CC4C(C1C2N1CCOC41)N3C (configuration not stated)
- T/C [15]: 117 % of control
- T/C [16]: 45 % of control

Compound: O=c1[nH]cc(F)c(=O)[nH]1
- T/C [14]: 207 % of control
- T/C (dose: 100.0 mg/kg/injection, vehicle: saline): 28 % of control

Compound: CNC(=O)N(C)N=NCCCl
- T/C [11]: -19 % of control
- T/C [12]: -66 % of control
